# US5968912A, “Methods for immunosuppressing” (Immune Modulation, Inc., priority 1997, dated 1999)
# What was measured:
# [1] = tested on: skin graft rejection (Balb/C tail skin on C57BL/6 mice); test: Skin graft survival in mice; type: in vivo, mouse
# Experimental: Effect of HE-33 on Skin-Grafting
# Balb/C and C57BL/6 mice are genetically histoincompatible in that Balb/C is of haplotype H-2^d whereas C57BL/6 is of haplotype H-2^b. The surgical procedure used in these experiments was performed according to the procedures reported by Matriano, J. E. et al. (J. Immunol., 1996, 156:4114-4119).
# Mice in groups 4 and 5 were orally administered HE-33 daily from 2 days prior to grafting. Rejection was assessed by observing redness and dryness of the graft (Natriano, J. E. et al., J. Immunol., 1996, 153:1505-1514). At a dose of 100 mg/kg I.V., HE-33 prolonged graft survival by approximately 4 days.
# C57BL/6 mice were grafted with tail skin from Balb/c mice. Drug treatment
# was started two days prior to grafting. Casts were removed on day 6 and
# survival of the graft was scored everyday. Rejection was defined on chang
# in thickness, dryness and >80% redness of the graft.
# [2] = tested on: Protein Kinase-C-Mediated T-cell Proliferation (PBMC); test: PK-C-mediated T-cell proliferation (PMA + A23187); type: cell-based, human; details: PMA 1.25 ng/mL + A23187 0.25 μM
# Experimental: Determination of the effect of HE-33 on PK-C-mediated signaling pathway
# PBMC of a healthy volunteer were cultured in 96-well microtiter plates at 2×10^5 cells/well. […] Forskolin is an agent well known to increase intacellular cAMP levels by activating adenylate cyclase. Cultures were incubated for 3 days at 37° C. in a 5% CO2 incubator. Proliferative response was determined by incorporation of ^3 H-thymidine.. The results were expressed in CPM and % inhibition of proliferation (Table 7).
# [3] = tested on: Human T-lymphocyte-mediated cytolysis (cytotoxic CD8+ T-cells); test: One-way MLR-generated T-lymphocyte-mediated cytolysis (CTL assay, 51Cr release); type: cell-based
# IL-10 = IL-10 production in PHA-stimulated PBMC cultures; type: cell-based, human; design: % Inhibition of IL-10 production: concentration or dose not given beside the values
# Experimental: Production of autocrine growth factors (IL-2, IL-4, IL-10 and Interferon-gamma) in PHA-stimulated human PBMC cultures
# Culture supernatants were collected at the times indicated and frozen at -20° C. At the end of 96 hr., all supernatants were assayed by enzyme immunoassay for the presence of the cytokines: interleukin-2, -4, -10 and interferon (IFN)-gamma. Results were expressed in pg/mL concentration of cytokine and % inhibition of cytokine production.
compound,measurement,setting,value
"CCCN(CCC)c1ncnc2c1ncn2[C@@H]1O[C@@H]2COP(=O)(O)O[C@H]2[C@H]1O [HE-33, N^6,N^6 -di-n-Propyl-c-AMP]",Mean Survival Time,[1]; 50 mg/kg (I.V.),10.25 days
same,Mean Survival Time,[1]; 100 mg/kg (I.V.),13.4 days
same,Prolongation of graft survival,[1]; 100 mg/kg I.V.,approximately 4 days
same,Mean Survival Time,[1]; 200 mg/kg (oral),9.2 days
same,Mean Survival Time,[1]; 400 mg/kg (oral),9.8 days
same,Proliferation,[2]; 100 μM,31 CPM
same,inhibition at 100 µM,"[2]; Homo sapiens, T-cell",97%
same,% Specific Lysis,"[3]; 100 μM, E:T 25:1",4%
same,inhibition at 100 µM,"[3]; Homo sapiens, T-cell, E:T 25:1, read-out: % Inhibition of lysis",80%
same,% Inhibition of IL-10 production,IL-10; 24 hours,21%
same,IL-10 production,IL-10; 24 hours,441 pg/mL
same,% Inhibition of IL-10 production,IL-10; 48 hours,0%
same,IL-10 production,IL-10; 48 hours,1304 pg/mL
same,% Inhibition of IL-10 production,IL-10; 72 hours,0%
same,IL-10 production,IL-10; 72 hours,790 pg/mL
same,% Inhibition of IL-10 production,IL-10; 96 hours,0%
same,IL-10 production,IL-10; 96 hours,991 pg/mL
